ChEMBL document CHEMBL1909046, “DrugMatrix in vitro pharmacology data”

Assays:
[1] = DRUGMATRIX: Tumor Necrosis Factor (TNF), Non-Selective radioligand binding (ligand: [125I] TNF-alpha); format: cell membranes, Membrane; conditions: u-937; Not Active = under 50% inhibition at 10 µM
[2] = target: Sigma non-opioid intracellular receptor 1 (Homo sapiens, UniProt Q99720); experiment: DRUGMATRIX: Sigma1 radioligand binding (ligand: [3H] Haloperidol); format: cell membranes, Jurkat, Membrane; conditions: jurkat; Not Active = under 50% inhibition at 10 µM
Sequence of Sigma non-opioid intracellular receptor 1 (Q99720 whole entry): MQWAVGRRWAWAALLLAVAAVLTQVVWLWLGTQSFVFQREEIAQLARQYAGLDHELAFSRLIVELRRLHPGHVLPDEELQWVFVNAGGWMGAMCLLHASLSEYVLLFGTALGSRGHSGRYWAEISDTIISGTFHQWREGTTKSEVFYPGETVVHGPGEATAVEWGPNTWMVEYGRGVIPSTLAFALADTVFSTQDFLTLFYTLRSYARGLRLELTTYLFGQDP

Thromboxane-A synthase = target: T1, Thromboxane-A synthase (Homo sapiens, UniProt P24557); experiment: biochemical; format: tissue-based, Platelet; conditions: platelet;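 further: enzyme inhibition assay with PGH2 supplied as substrate; in other assays of this panel Not Active means under 50% inhibition at 10 µM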
T1 sequence (P24557 whole entry): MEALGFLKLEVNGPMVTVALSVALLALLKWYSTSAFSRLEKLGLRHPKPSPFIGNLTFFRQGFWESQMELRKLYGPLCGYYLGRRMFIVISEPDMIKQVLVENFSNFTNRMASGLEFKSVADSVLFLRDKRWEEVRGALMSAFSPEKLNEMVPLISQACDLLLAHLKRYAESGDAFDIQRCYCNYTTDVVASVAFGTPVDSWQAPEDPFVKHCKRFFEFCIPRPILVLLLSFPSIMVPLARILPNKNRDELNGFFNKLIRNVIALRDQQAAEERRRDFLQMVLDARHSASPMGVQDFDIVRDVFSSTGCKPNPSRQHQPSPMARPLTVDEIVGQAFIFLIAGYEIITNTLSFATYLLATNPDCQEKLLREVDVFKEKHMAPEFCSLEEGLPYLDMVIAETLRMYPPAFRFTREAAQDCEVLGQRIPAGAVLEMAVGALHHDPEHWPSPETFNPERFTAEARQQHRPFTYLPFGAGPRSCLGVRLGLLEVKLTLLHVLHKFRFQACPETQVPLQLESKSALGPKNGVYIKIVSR

Carbonic anhydrase 2 = Carbonic anhydrase 2 (Homo sapiens, UniProt P00918); experiment: DRUGMATRIX: Carbonic Anhydrase II enzyme inhibition (substrate: 4-Nitrophenyl acetate (4-NPA)); format: tissue-based, Erythrocyte; conditions: erythrocyte; Not Active = under 50% inhibition at 10 µM
Cytochrome P450 2C9 = Cytochrome P450 2C9 (Homo sapiens, UniProt P11712); conditions: bti-tn-5b1-4; further: in other assays of this panel Not Active means under 50% inhibition at 10 µM
Sequence of Cytochrome P450 2C9 (P11712 whole entry): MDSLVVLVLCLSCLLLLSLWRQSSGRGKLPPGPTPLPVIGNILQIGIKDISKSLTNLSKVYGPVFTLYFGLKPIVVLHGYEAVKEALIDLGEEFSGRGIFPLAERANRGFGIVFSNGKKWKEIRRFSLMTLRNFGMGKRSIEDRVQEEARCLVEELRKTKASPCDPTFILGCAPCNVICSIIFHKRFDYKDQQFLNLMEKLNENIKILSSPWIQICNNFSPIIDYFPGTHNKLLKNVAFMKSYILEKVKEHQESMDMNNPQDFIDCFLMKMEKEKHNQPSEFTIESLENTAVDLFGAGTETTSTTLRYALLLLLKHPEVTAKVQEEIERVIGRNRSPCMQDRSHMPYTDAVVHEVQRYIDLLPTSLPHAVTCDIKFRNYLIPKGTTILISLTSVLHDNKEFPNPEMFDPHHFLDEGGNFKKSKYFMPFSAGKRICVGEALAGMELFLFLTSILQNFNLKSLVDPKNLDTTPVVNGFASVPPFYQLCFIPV

Estrogen receptor = target: T2, Estrogen receptor (Homo sapiens, UniProt P03372); conditions: sf9; further: in other assays of this panel Not Active means under 50% inhibition at 10 µM
T2 sequence (P03372 whole entry): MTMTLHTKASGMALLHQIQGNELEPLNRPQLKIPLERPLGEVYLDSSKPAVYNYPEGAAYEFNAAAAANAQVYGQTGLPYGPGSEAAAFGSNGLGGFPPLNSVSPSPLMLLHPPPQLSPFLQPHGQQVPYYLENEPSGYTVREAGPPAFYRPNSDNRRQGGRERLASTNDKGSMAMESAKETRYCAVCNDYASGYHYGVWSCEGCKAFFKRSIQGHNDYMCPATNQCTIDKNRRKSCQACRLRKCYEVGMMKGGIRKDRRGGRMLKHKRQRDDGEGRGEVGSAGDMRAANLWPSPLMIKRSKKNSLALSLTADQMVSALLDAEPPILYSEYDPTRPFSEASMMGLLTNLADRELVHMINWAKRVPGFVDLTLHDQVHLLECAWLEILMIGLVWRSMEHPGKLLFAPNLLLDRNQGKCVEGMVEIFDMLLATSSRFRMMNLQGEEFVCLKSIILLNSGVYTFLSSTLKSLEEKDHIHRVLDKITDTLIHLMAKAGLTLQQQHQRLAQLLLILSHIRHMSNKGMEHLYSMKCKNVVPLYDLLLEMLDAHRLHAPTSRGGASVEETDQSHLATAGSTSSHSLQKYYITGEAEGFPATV

[3] = target: T3, Nitric oxide synthase, inducible (Mus musculus, UniProt P29477); design: species or system Escherichia coli;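 further: inhibition of iNOS enzyme activity measured with L-arginine as substrate; in other assays of this panel Not Active means under 50% inhibition at 10 µM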
T3 sequence (P29477 whole entry): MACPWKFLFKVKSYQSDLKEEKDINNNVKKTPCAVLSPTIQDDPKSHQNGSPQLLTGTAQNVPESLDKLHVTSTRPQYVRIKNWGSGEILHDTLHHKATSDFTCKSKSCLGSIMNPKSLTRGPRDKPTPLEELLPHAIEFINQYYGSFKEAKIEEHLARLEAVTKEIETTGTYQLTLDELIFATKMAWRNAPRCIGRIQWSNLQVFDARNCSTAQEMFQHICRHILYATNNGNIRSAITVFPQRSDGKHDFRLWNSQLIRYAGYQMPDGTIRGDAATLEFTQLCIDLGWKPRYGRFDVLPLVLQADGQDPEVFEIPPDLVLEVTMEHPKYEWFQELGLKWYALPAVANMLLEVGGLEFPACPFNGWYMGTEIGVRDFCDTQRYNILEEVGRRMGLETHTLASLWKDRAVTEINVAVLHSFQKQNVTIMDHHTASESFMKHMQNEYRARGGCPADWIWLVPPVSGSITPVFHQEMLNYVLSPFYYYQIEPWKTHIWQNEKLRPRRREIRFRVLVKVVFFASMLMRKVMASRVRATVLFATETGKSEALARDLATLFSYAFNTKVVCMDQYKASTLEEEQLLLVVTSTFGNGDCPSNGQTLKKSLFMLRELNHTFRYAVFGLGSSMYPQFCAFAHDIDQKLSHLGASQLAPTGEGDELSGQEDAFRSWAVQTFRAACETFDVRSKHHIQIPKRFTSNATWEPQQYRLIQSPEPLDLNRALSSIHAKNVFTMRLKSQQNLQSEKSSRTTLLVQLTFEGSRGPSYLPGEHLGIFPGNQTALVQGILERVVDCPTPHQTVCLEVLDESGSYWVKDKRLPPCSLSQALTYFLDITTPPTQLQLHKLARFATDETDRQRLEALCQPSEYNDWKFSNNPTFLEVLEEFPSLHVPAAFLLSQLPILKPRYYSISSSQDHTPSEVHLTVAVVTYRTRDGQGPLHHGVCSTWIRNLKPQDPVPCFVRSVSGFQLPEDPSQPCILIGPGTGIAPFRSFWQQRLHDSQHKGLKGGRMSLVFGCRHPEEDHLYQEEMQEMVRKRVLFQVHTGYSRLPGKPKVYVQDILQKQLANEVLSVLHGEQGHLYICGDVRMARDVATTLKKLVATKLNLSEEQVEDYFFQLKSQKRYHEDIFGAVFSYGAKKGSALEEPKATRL

[4] = DRUGMATRIX: Glutamate, NMDA, Agonism radioligand binding (ligand: [3H] CGP-39653); format: cell membranes, Rattus norvegicus, Wistar, Cerebral cortex, Membrane; conditions: Not Active = under 50% inhibition at 10 µM

C[C@@H]1C[C@H]2[C@@H]3CCC4=CC(=O)C=C[C@]4(C)C3=CC[C@]2(C)[C@H]1C(=O)CN1CCN(c2cc(N3CCCC3)nc(N3CCCC3)n2)CC1 [TIRILAZAD]
Not Active: IC50 [1] | Ki [1] | IC50 [2] | IC50 (Thromboxane-A synthase) | IC50 (Carbonic anhydrase 2) | IC50 (Cytochrome P450 2C9) | Ki (Cytochrome P450 2C9) | IC50 (Estrogen receptor) | IC50 [3] | IC50 [4] | Ki [4]

NC[C@H]1O[C@H](O[C@H]2[C@H](O)[C@@H](O[C@H]3O[C@H](CO)[C@@H](O)[C@H](N)[C@H]3O)[C@H](N)C[C@@H]2N)[C@H](N)C[C@@H]1O [TOBRAMYCIN]
Not Active: IC50 [1] | Ki [1] | IC50 [2] | IC50 (Thromboxane-A synthase) | IC50 (Carbonic anhydrase 2) | IC50 (Cytochrome P450 2C9) | Ki (Cytochrome P450 2C9) | IC50 (Estrogen receptor) | IC50 [3] | IC50 [4] | Ki [4]

CC(=O)O[C@H]1C[C@@H]2CC[C@@H]3[C@H](CC[C@@]4(C)[C@H]3C[C@H]([N+]3(C)CCCCC3)[C@@H]4OC(C)=O)[C@@]2(C)C[C@@H]1N1CCCCC1.[Br-] [VECURONIUM BROMIDE]
Not Active: IC50 [1] | Ki [1] | IC50 [2] | IC50 (Thromboxane-A synthase) | IC50 (Carbonic anhydrase 2) | IC50 (Cytochrome P450 2C9) | Ki (Cytochrome P450 2C9) | IC50 (Estrogen receptor) | IC50 [3] | IC50 [4] | Ki [4]

Cc1cn([C@H]2C[C@H](N=[N+]=[N-])[C@@H](CO)O2)c(=O)[nH]c1=O [ZIDOVUDINE]
Not Active: IC50 [1] | Ki [1] | IC50 [2] | IC50 (Thromboxane-A synthase) | IC50 (Carbonic anhydrase 2) | IC50 (Cytochrome P450 2C9) | Ki (Cytochrome P450 2C9) | IC50 (Estrogen receptor) | IC50 [3] | IC50 [4] | Ki [4]

STANNOUS FLUORIDE
Not Active: IC50 [1] | Ki [1] | IC50 [2] | Ki [2] | IC50 (Thromboxane-A synthase) | Ki (Thromboxane-A synthase) | IC50 (Carbonic anhydrase 2) | Ki (Carbonic anhydrase 2) | IC50 (Cytochrome P450 2C9) | Ki (Cytochrome P450 2C9) | IC50 (Estrogen receptor) | Ki (Estrogen receptor) | IC50 [3] | Ki [3] | IC50 [4] | Ki [4]

THIMEROSAL
Not Active: IC50 [1] | Ki [1] | IC50 [2] | Ki [2] | IC50 (Thromboxane-A synthase) | Ki (Thromboxane-A synthase) | IC50 (Carbonic anhydrase 2) | Ki (Carbonic anhydrase 2) | IC50 (Cytochrome P450 2C9) | Ki (Cytochrome P450 2C9) | IC50 (Estrogen receptor) | Ki (Estrogen receptor) | IC50 [3] | Ki [3] | IC50 [4] | Ki [4]
